Measurements from PMC6717215, “Chemical characterization and biological activity data for a novel indirubin derivative, LDD-1819” (Data in Brief, 2019).
pIC50: −log10 of the molar value. Counter-ions that a name gives are not always drawn.

What was measured:
aurora kinase A = target: T1, aurora kinase A (Homo sapiens, UniProt O14965); assay: Z′-LYTE FRET peptide biochemical kinase assay, ATP at Km, concentration-dependent
T1 construct: gene AURKA
T1 sequence (O14965 1-403): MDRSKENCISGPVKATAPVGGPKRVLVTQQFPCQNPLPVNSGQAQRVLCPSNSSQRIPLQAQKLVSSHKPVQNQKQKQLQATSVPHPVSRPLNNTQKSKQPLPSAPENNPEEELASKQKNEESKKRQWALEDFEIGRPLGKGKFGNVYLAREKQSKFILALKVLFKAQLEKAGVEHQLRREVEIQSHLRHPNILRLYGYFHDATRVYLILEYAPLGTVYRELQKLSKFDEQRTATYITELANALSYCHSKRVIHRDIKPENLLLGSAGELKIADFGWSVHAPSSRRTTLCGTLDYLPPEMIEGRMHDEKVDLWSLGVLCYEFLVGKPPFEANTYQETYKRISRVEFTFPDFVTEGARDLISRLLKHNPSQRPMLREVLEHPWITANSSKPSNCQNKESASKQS

[1] = target: T2, glycogen synthase kinase-3 β (GSK-3β) (Homo sapiens, UniProt P49841); assay: as above
T2 construct: gene GSK3B
T2 sequence (P49841 whole entry): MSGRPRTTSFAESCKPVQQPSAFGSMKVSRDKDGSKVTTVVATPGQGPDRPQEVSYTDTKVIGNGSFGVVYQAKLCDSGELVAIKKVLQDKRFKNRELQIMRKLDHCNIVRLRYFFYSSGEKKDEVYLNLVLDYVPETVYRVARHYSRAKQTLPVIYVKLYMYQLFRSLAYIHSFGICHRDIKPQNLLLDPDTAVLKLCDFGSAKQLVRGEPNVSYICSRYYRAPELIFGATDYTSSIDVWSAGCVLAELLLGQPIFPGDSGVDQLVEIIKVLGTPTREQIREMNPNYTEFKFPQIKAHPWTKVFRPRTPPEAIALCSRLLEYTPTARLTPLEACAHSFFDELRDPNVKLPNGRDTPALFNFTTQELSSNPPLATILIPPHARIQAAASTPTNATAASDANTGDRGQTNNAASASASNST

pIC50 (aurora kinase A): 6.65
pIC50 [1]: 8.26
Structure (SMILES): NCCO/N=C1/C(=C2/C(=O)Nc3ccc([N+](=O)[O-])cc32)Nc2ccc(O)cc21 [LDD-1819, (2Z,3E)-3-((2-aminoethoxy)imino)-5-hydroxy-5′-nitro-[2,3′-biindolinylidene]-2′-one hydrochloride]
